{"source": "paper PMC6993587", "about": "“Detection of EXP1-Specific CD4+ T Cell Responses Directed Against a Broad Range of Epitopes Including Two Promiscuous MHC Class II Binders During Acute Plasmodium falciparum Malaria” (Frontiers in Immunology, 2020)", "tested_on": "CD8+ T cells (PBMCs of malaria patients)", "experiment": "EXP1-specific CD8+ T cell response, ICS for IFNγ after in vitro culture", "type": "cell-based, human", "settings": "patients HH-16, HH-18, HH-20 and HH-25; coincided with a CD4+ T cell response against the same peptide", "protocol": "Cryopreserved PBMCs were thawed and cultivated at 1–5 × 10^6 cells/ml for optimal results in 500 μl of R10 medium (RPMI 1640 medium with 10% FCS (Sigma Aldrich), 1% HEPES buffer and 1% Penicillin-Streptomycin). PBMCs were stimulated with EXP1 peptide pool 1 [EXP1 peptide 1-10 (EXP1-P01-10)], pool 2 (EXP1-P11-20) or pool 3 (EXP1-P21-31) (Table 2) at a final concentration of 10 μg/ml, together with 1 μg/ml of anti-CD28 and anti-CD49d antibodies [BD FastImmune™, clone: L293 (CD28) and clone: L25 (CD49d)] for 14 days. Medium with recombinant IL-2 (50 U/ml) was added when necessary. After 14 days, cells were re-stimulated with single EXP1-peptides (final concentration 10 μg/ml) and then assayed for interferon-γ (IFNγ) production by ELISPOT and intracellular cytokine staining (ICS) as previously described ([28]).\nICS was performed as previously described ([26], [28]). 5 × 10^5 PBMCs were stimulated with the corresponding EXP1 peptide at a final concentration of 10 μg/ml before blocking the secretion with 10 μg/ml Brefeldin A (Sigma Aldrich) 1 h after stimulation. […] Cells were then analyzed on a BD LSRFortessa (BD Bioscience). […]", "data": [{"sequence": "KKGSGEPLIDVHDLI [EXP1-P09, overlapping peptide of P. falciparum EXP1, aa 40–54]", "values": [{"measurement": "CD8+ T cell response", "result": "CD8+ T cell response"}]}]}
